Laboratory results from the kinase profiling compilation of Christmann-Franck et al. (2016).
One block for each molecule: values may come before it.

Key:
Assay in all cases: KINOMEscan competition binding
Details in all cases: compound 10.0 µM
[1] = molecular target: STK3 (human) (UniProt Q13188)
[2] = molecular target: CDK15 (human) (UniProt Q96Q40)
[3] = molecular target: PIK3CA (human) (UniProt P42336)
[4] = test system: ABL1 (human), P00519 [H396P]
[5] = test system: ABL1 (human), P00519 [Q252H]
[6] = molecular target: ADCK3 (human) (UniProt Q8NI60)
[7] = molecular target: AKT3 (human) (UniProt Q9Y243)
[8] = molecular target: AXL (human) (UniProt P30530)
AXL (human), sequence (P30530 whole entry, looked up): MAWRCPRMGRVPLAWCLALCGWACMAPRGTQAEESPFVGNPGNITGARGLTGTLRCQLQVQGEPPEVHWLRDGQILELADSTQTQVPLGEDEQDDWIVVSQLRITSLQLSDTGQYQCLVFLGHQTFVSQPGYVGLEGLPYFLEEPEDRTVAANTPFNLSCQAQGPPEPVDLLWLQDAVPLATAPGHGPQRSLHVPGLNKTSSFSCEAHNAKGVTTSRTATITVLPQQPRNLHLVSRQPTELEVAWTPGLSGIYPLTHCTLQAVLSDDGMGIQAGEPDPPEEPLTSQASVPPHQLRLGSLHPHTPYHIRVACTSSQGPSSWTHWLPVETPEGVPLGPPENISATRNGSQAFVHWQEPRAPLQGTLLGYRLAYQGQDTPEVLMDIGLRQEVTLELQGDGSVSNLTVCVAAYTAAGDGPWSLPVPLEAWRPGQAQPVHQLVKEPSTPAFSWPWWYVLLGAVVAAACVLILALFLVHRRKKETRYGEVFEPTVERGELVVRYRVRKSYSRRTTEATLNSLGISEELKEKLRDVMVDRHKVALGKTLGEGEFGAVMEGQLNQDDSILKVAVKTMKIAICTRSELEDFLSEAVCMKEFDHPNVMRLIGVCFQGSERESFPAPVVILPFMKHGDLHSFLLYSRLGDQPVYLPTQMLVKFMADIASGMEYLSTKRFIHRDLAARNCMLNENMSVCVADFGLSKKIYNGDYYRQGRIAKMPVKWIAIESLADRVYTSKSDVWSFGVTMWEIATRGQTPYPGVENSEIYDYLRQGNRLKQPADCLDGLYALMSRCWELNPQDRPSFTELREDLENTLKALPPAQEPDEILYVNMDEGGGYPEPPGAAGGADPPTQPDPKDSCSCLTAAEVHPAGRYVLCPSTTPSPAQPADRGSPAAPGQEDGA

[9] = molecular target: BLK (human) (UniProt P51451)
[10] = molecular target: CAMK2B (human) (UniProt Q13554)
CAMK2B (human), sequence (Q13554 whole entry, looked up): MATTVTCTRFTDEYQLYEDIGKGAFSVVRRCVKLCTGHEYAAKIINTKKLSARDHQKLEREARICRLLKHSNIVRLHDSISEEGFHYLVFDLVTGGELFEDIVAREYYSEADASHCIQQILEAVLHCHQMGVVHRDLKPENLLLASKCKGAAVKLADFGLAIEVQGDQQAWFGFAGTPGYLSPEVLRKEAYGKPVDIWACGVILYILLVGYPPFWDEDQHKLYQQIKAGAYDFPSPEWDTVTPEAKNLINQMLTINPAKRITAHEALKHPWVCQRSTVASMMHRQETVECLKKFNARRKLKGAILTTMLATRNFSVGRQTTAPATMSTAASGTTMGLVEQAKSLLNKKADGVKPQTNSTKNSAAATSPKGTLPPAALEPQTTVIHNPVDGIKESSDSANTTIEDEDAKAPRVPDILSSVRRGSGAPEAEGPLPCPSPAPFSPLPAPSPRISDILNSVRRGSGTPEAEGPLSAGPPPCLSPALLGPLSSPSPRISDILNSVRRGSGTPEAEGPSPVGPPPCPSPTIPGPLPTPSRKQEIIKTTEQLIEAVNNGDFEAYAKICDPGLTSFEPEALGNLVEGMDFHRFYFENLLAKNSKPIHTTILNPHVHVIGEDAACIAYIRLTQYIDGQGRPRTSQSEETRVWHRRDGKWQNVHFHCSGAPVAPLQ

[11] = molecular target: CDC2L2 (human) (UniProt Q9UQ88)
[12] = molecular target: CDK8 (human) (UniProt P49336)
CDK8 (human), sequence (P49336 whole entry, looked up): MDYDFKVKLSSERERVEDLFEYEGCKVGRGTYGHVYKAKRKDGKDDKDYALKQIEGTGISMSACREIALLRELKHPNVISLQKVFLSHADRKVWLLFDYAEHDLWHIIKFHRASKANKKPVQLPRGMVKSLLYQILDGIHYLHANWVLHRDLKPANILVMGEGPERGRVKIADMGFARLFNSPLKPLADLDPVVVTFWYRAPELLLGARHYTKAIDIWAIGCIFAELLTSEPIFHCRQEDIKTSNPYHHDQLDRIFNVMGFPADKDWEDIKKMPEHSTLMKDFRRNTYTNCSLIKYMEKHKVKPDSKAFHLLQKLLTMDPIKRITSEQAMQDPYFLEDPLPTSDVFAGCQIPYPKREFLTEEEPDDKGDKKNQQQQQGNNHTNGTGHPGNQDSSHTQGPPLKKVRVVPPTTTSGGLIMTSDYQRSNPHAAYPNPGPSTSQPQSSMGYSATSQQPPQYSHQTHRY

[13] = molecular target: DCLK1 (human) (UniProt O15075)
[14] = molecular target: DCLK2 (human) (UniProt Q8N568)
[15] = test system: EGFR (human), P00533 [L861Q]
[16] = molecular target: EPHA8 (human) (UniProt P29322)
[17] = molecular target: EPHB4 (human) (UniProt P54760)
[18] = molecular target: FES (human) (UniProt P07332)
[19] = molecular target: FGFR2 (human) (UniProt P21802)
[20] = molecular target: IGF1R (human) (UniProt P08069)
[21] = molecular target: LCK (human) (UniProt P06239)
[22] = molecular target: LTK (human) (UniProt P29376)
[23] = molecular target: MAP2K1 (human) (UniProt Q02750)
MAP2K1 (human), sequence (Q02750 whole entry, looked up): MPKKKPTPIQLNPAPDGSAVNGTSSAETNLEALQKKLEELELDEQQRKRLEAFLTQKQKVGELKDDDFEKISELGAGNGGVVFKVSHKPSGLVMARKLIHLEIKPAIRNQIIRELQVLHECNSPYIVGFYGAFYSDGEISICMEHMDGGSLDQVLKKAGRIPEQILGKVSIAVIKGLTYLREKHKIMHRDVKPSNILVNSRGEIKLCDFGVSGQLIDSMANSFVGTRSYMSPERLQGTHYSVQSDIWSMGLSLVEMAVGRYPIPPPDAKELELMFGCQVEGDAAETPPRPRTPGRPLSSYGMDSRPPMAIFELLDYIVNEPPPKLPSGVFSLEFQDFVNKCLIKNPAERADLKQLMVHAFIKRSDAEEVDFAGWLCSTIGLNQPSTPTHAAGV

[24] = molecular target: MARK1 (human) (UniProt Q9P0L2)
[25] = molecular target: MARK2 (human) (UniProt Q7KZI7)
MARK2 (human), sequence (Q7KZI7 whole entry, looked up): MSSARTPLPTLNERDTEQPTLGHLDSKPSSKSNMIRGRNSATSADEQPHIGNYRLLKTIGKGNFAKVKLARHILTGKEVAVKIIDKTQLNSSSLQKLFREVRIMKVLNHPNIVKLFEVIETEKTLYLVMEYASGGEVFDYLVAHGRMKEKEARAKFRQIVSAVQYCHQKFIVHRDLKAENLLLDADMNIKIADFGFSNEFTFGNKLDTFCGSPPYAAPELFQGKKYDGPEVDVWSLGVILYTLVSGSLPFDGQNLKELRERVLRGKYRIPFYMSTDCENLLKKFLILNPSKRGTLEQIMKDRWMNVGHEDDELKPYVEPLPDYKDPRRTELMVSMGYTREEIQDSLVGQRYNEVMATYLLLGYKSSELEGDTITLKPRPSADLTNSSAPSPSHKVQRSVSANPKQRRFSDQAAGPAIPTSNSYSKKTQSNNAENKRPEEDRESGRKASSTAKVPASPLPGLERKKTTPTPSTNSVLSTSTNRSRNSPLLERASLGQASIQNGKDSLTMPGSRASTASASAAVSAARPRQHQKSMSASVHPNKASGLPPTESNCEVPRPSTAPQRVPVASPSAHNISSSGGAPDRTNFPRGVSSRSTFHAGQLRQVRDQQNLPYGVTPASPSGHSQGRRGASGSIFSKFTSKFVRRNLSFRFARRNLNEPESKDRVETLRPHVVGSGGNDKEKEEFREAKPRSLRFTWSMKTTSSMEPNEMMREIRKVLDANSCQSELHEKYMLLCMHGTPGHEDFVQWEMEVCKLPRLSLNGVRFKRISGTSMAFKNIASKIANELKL

[26] = molecular target: MLTK (human) (UniProt Q9NYL2)
[27] = molecular target: MST4 (human) (UniProt Q9P289)
[28] = molecular target: MUSK (human) (UniProt O15146)
[29] = molecular target: MYLK2 (human) (UniProt Q9H1R3)
[30] = molecular target: NEK1 (human) (UniProt Q96PY6)
[31] = molecular target: NUAK1 (human) (UniProt O60285)
NUAK1 (human), sequence (O60285 whole entry, looked up): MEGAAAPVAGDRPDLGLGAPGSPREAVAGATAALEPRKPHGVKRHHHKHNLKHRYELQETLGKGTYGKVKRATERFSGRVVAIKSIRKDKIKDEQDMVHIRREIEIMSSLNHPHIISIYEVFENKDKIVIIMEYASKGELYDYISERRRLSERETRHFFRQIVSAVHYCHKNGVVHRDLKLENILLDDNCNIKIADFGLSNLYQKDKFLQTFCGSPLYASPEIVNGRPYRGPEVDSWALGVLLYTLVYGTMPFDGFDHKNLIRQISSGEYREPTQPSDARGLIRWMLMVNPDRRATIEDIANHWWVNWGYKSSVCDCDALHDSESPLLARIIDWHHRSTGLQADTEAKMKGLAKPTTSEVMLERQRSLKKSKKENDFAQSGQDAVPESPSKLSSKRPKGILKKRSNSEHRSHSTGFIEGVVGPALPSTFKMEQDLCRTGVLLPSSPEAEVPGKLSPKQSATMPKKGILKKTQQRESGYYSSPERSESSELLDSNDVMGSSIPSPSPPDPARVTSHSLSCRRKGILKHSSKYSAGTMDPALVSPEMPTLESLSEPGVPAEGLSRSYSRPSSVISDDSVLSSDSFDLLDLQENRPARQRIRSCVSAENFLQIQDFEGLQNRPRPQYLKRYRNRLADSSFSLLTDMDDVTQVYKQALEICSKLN

[32] = molecular target: PRKAA2 (human) (UniProt P54646)
[33] = test system: RET (human), P07949 [V804M]
[34] = molecular target: ROCK2 (human) (UniProt O75116)
[35] = molecular target: SRC (human) (UniProt P12931)
[36] = molecular target: STK10 (human) (UniProt O94804)
STK10 (human), sequence (O94804 whole entry, looked up): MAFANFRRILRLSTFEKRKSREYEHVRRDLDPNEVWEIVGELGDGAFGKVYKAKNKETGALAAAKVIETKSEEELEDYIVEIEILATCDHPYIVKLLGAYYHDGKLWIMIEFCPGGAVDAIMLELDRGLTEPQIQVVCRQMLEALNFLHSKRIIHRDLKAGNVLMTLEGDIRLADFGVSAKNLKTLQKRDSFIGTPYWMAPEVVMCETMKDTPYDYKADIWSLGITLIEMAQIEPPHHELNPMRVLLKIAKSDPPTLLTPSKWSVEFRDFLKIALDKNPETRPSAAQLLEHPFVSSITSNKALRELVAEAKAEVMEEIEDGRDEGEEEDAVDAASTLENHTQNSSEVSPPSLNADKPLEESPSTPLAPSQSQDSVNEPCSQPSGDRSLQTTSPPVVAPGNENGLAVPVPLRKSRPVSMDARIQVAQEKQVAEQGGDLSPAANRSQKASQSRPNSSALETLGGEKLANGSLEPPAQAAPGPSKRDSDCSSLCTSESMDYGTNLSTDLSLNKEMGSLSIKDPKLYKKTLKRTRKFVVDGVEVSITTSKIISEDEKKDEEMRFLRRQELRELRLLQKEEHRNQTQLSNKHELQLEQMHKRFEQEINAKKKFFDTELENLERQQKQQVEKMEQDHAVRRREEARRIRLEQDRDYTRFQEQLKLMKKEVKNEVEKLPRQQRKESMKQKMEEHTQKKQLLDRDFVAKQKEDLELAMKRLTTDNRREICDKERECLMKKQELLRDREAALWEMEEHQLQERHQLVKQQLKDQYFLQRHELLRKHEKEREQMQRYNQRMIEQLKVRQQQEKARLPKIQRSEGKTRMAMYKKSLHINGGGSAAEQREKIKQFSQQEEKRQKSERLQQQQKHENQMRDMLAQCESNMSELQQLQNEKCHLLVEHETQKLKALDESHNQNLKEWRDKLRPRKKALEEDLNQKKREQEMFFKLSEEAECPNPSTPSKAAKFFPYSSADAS

[37] = molecular target: STK32B (human) (UniProt Q9NY57)
[38] = molecular target: STK32C (human) (UniProt Q86UX6)
[39] = molecular target: STK36 (human) (UniProt Q9NRP7)
[40] = molecular target: STK4 (human) (UniProt Q13043)
[41] = molecular target: TSSK1B (human) (UniProt Q9BXA7)
[42] = molecular target: ULK3 (human) (UniProt Q6PHR2)
[43] = molecular target: YES1 (human) (UniProt P07947)

kinase still bound, per cent of control [1]: 15%
SMILES: CS(=O)(=O)Nc1ccc(-c2cc(/C=C3\SC(=N)NC3=O)c[nH]c2=O)cc1

kinase still bound, per cent of control [2]: 13% | kinase still bound, per cent of control [3]: 9.2%
SMILES: N=C1NC(=O)/C(=C/c2ccc(-c3ccc(C(N)=O)cc3O)o2)S1

kinase still bound, per cent of control [4]: 0.15% | kinase still bound, per cent of control [5]: 2.1% | kinase still bound, per cent of control [6]: 100% | kinase still bound, per cent of control [7]: 100% | kinase still bound, per cent of control [8]: 88% | kinase still bound, per cent of control [9]: 12% | kinase still bound, per cent of control [10]: 100% | kinase still bound, per cent of control [11]: 100% | kinase still bound, per cent of control [2]: 100% | kinase still bound, per cent of control [12]: 100% | kinase still bound, per cent of control [13]: 1.8% | kinase still bound, per cent of control [14]: 0.6% | kinase still bound, per cent of control [15]: 100% | kinase still bound, per cent of control [16]: 100% | kinase still bound, per cent of control [17]: 100% | kinase still bound, per cent of control [18]: 100% | kinase still bound, per cent of control [19]: 63% | kinase still bound, per cent of control [20]: 100% | kinase still bound, per cent of control [21]: 50% | kinase still bound, per cent of control [22]: 100% | kinase still bound, per cent of control [23]: 100% | kinase still bound, per cent of control [24]: 59% | kinase still bound, per cent of control [25]: 51% | kinase still bound, per cent of control [26]: 100% | kinase still bound, per cent of control [27]: 27% | kinase still bound, per cent of control [28]: 100% | kinase still bound, per cent of control [29]: 80% | kinase still bound, per cent of control [30]: 93% | kinase still bound, per cent of control [31]: 17% | kinase still bound, per cent of control [3]: 98% | kinase still bound, per cent of control [32]: 31% | kinase still bound, per cent of control [33]: 3% | kinase still bound, per cent of control [34]: 86% | kinase still bound, per cent of control [35]: 21% | kinase still bound, per cent of control [36]: 100% | kinase still bound, per cent of control [1]: 27% | kinase still bound, per cent of control [37]: 100% | kinase still bound, per cent of control [38]: 100% | kinase still bound, per cent of control [39]: 100% | kinase still bound, per cent of control [40]: 80% | kinase still bound, per cent of control [41]: 100% | kinase still bound, per cent of control [42]: 77% | kinase still bound, per cent of control [43]: 38%
SMILES: CN1C(=O)c2ccccc2N(C)c2nc(Nc3ccc(N4CCC(O)CC4)cc3)ncc21

kinase still bound, per cent of control [26]: 7.6% | kinase still bound, per cent of control [36]: 26% | kinase still bound, per cent of control [1]: 17%
SMILES: CS(=O)(=O)Nc1ccc(-c2cncc(/C=C3\SC(=N)NC3=O)c2)cc1

kinase still bound, per cent of control [4]: 96% | kinase still bound, per cent of control [5]: 53% | kinase still bound, per cent of control [6]: 76% | kinase still bound, per cent of control [7]: 98% | kinase still bound, per cent of control [8]: 24% | kinase still bound, per cent of control [9]: 100% | kinase still bound, per cent of control [10]: 47% | kinase still bound, per cent of control [11]: 95% | kinase still bound, per cent of control [2]: 50% | kinase still bound, per cent of control [12]: 44% | kinase still bound, per cent of control [13]: 73% | kinase still bound, per cent of control [14]: 67% | kinase still bound, per cent of control [15]: 69% | kinase still bound, per cent of control [16]: 76% | kinase still bound, per cent of control [17]: 100% | kinase still bound, per cent of control [18]: 100% | kinase still bound, per cent of control [19]: 100% | kinase still bound, per cent of control [20]: 100% | kinase still bound, per cent of control [21]: 100% | kinase still bound, per cent of control [22]: 100% | kinase still bound, per cent of control [23]: 55% | kinase still bound, per cent of control [24]: 100% | kinase still bound, per cent of control [25]: 60% | kinase still bound, per cent of control [26]: 92% | kinase still bound, per cent of control [27]: 80% | kinase still bound, per cent of control [28]: 97% | kinase still bound, per cent of control [29]: 14% | kinase still bound, per cent of control [30]: 73% | kinase still bound, per cent of control [31]: 77% | kinase still bound, per cent of control [3]: 49% | kinase still bound, per cent of control [32]: 100% | kinase still bound, per cent of control [33]: 88% | kinase still bound, per cent of control [34]: 56% | kinase still bound, per cent of control [35]: 100% | kinase still bound, per cent of control [36]: 33% | kinase still bound, per cent of control [1]: 90% | kinase still bound, per cent of control [37]: 100% | kinase still bound, per cent of control [38]: 100% | kinase still bound, per cent of control [39]: 85% | kinase still bound, per cent of control [40]: 96% | kinase still bound, per cent of control [41]: 2.9% | kinase still bound, per cent of control [42]: 100% | kinase still bound, per cent of control [43]: 97%
SMILES: O=C1NC(=O)/C(=C/c2c[nH]c(=O)c(-c3ccc(N4CCNCC4)nc3)c2)S1

kinase still bound, per cent of control [2]: 9.4% | kinase still bound, per cent of control [27]: 32%
SMILES: N=C1NC(=O)/C(=C/c2ccc(-c3ccc(F)cc3O)o2)S1

kinase still bound, per cent of control [31]: 31%
SMILES: N=C1NC(=O)/C(=C/c2ccc(-c3csc4ccccc34)o2)S1

kinase still bound, per cent of control [5]: 28% | kinase still bound, per cent of control [36]: 6.8% | kinase still bound, per cent of control [39]: 20%
SMILES: CS(=O)(=O)Nc1ccc(-c2ncc(/C=C3\SC(=N)NC3=O)s2)cc1

kinase still bound, per cent of control [10]: 17% | kinase still bound, per cent of control [12]: 11% | kinase still bound, per cent of control [23]: 26% | kinase still bound, per cent of control [26]: 23% | kinase still bound, per cent of control [29]: 12% | kinase still bound, per cent of control [30]: 33% | kinase still bound, per cent of control [32]: 33% | kinase still bound, per cent of control [33]: 16% | kinase still bound, per cent of control [1]: 25%
SMILES: N=C1NC(=O)/C(=C/c2ccc(-c3cncc4ccccc34)o2)S1

kinase still bound, per cent of control [8]: 13% | kinase still bound, per cent of control [13]: 5.8% | kinase still bound, per cent of control [14]: 18% | kinase still bound, per cent of control [29]: 15%
SMILES: CN1C(=O)[C@H]2CCC[C@H]2N(C2CCCC2)c2nc(Nc3ccc(C(N)=O)cc3)ncc21

kinase still bound, per cent of control [41]: 9.8%
SMILES: N=C1NC(=O)/C(=C/c2c[nH]c(=O)c(-c3ccc(N4CCNCC4)nc3)c2)S1

kinase still bound, per cent of control [10]: 22% | kinase still bound, per cent of control [12]: 10% | kinase still bound, per cent of control [22]: 13% | kinase still bound, per cent of control [25]: 23% | kinase still bound, per cent of control [26]: 31% | kinase still bound, per cent of control [30]: 31%
SMILES: O=C1NC(=S)S/C1=C\c1ccc(-c2cncc3ccccc23)o1

kinase still bound, per cent of control [2]: 34%
SMILES: N=C1NC(=O)/C(=C/c2ccc(-c3ccccc3O)o2)S1
